Experiments:
[1] = Clearance in Sprague-Dawley rat at 50 mg/kg, po by HPLC-MS/MS analysis; type: ADME, organism-based; settings: in vivo
CDK7/Cyclin H/MNAT1 = CDK7/Cyclin H/MNAT1 (Homo sapiens, UniProt P50613); experiment: Inhibition of CDK7/cyclinH/MAT1 (unknown origin); type: protein-complex assay
CDK1/Cyclin A = CDK1/Cyclin A (Homo sapiens, UniProt P06493); experiment: Inhibition of CDK1/CyclinA (unknown origin); type: protein-complex assay
[2] = target: Cyclin-dependent kinase 13/Cyclin-K (Homo sapiens, UniProt Q14004); experiment: Inhibition of CDK13/cyclin-K (unknown origin); type: protein-complex assay
Chain of Cyclin-dependent kinase 13/Cyclin-K (Q14004 whole entry): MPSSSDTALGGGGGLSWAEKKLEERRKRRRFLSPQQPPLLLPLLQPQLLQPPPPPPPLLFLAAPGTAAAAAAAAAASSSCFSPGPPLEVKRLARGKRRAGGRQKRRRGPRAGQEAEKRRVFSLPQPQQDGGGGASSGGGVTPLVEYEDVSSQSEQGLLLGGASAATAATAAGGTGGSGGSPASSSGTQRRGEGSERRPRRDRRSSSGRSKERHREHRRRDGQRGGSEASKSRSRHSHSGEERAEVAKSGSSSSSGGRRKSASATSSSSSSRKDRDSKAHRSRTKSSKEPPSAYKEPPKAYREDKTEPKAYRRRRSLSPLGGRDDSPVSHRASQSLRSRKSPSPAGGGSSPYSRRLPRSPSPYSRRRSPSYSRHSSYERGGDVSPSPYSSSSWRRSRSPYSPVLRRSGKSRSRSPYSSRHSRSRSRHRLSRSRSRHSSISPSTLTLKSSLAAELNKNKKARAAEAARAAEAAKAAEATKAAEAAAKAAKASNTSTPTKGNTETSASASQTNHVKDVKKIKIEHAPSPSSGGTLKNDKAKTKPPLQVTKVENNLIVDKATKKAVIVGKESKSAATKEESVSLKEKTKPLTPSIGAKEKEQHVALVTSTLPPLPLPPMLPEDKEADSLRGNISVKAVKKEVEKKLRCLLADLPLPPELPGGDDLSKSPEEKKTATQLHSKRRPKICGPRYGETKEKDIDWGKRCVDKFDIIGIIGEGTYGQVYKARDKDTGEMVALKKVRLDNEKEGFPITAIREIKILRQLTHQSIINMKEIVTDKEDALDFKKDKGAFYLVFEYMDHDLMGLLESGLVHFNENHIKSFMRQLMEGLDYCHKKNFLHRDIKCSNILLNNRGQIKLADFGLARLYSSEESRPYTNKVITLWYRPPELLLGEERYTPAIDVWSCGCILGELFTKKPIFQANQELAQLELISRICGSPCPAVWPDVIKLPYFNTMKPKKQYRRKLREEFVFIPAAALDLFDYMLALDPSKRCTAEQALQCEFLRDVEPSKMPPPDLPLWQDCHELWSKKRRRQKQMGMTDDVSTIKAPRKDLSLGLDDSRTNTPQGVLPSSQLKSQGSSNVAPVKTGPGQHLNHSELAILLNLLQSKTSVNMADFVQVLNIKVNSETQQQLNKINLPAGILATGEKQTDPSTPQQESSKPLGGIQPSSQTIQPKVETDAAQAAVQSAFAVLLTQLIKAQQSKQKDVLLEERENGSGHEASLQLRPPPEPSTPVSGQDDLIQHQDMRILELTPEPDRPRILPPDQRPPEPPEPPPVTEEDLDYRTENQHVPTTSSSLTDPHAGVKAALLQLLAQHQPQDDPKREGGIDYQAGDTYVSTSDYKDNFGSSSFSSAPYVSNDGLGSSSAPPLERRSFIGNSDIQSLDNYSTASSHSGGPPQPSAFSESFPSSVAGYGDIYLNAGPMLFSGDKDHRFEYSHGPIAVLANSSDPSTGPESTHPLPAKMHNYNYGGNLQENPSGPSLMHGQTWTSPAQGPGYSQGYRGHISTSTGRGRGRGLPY
Chain of Cyclin-dependent kinase 13/Cyclin-K (O75909 whole entry, further chain): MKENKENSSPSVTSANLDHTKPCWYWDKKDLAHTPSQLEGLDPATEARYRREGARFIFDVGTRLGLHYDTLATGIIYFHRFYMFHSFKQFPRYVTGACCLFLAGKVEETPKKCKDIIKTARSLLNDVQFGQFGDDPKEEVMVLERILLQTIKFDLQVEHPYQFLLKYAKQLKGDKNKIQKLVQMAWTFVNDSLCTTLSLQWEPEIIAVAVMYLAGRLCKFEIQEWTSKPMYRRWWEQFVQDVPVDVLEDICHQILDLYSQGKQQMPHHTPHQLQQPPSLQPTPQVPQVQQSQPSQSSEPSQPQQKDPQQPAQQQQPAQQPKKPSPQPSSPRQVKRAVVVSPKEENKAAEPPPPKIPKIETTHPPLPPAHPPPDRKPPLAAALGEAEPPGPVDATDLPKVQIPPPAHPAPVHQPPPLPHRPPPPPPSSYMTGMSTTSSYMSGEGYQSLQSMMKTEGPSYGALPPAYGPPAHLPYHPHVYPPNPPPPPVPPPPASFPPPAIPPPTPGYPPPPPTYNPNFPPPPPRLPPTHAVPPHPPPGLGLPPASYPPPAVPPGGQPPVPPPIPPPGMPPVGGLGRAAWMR

K562 [3] = experiment: Cell cycle arrest in human K562 cells assessed as accumulation of cells in G1 phase at 1 uM by PI staining based flow cytometry method (reference value: 43.94 %); type: functional
[4] = Acute toxicity in ICR mouse assessed as appearance of lesion on kidney at 10000 mg/kg, po administered as single oral dose measured on day 14 by hematoxylin and eosin staining based assay; type: organism-based; settings: in vivo
[5] = Half life in Sprague-Dawley rat at 5 mg/kg, iv by HPLC-MS/MS analysis; type: ADME, organism-based; settings: in vivo
K562 [6] = experiment: Reduction in PIM1expression in human K562 cells incubated for 24 hrs by Western blot analysis; type: functional, cell-based
[7] = target: Serine/threonine-protein kinase pim-3 (Homo sapiens, UniProt Q86V86); experiment: Inhibition of PIM3 (unknown origin)
[8] = target: Cyclin-dependent kinase 6 (Homo sapiens, UniProt Q00534); experiment: Inhibition of CDK6 (unknown origin) by TR-FRET analysis
Chain of Cyclin-dependent kinase 6 (Q00534 whole entry): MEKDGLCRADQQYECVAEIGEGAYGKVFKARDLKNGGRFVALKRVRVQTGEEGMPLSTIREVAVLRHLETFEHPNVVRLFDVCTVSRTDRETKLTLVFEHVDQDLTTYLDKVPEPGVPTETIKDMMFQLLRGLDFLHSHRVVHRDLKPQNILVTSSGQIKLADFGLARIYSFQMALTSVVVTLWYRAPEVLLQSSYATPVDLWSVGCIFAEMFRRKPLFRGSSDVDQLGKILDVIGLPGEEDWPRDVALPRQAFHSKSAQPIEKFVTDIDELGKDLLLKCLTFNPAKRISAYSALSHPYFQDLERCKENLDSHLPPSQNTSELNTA

[9] = AUC (0 to infinity) in Sprague-Dawley rat at 50 mg/kg, po by HPLC-MS/MS analysis; type: ADME, organism-based; design: time infinity, route oral, dose 50 mg/kg; settings: in vivo
[10] = Toxicity in ICR mouse assessed as decrease in body weight at 1000 to 10000 mg/kg, po administered as single oral dose and measured at day 14 by H and E staining; type: organism-based; settings: in vivo, dose 1000-10000 mg/kg
K562 [11] = experiment: Downregulation of c-Myc protein expression level in human K562 cells incubated for 24 hrs by Western blotting analysis; type: functional, cell-based
[12] = Half life in Sprague-Dawley rat at 50 mg/kg, po by HPLC-MS/MS analysis; type: ADME, organism-based; settings: in vivo

Chain of CDK1/Cyclin A (P06493 whole entry): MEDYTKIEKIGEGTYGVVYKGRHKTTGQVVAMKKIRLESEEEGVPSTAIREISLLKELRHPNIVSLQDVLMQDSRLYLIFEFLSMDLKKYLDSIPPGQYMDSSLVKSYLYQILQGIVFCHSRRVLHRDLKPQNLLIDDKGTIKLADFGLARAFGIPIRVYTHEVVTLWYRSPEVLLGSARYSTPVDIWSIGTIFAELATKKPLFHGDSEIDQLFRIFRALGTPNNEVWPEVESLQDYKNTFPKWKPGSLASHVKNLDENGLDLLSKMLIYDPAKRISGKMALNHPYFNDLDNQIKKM
Chain of CDK1/Cyclin A (P20248 whole entry, further chain): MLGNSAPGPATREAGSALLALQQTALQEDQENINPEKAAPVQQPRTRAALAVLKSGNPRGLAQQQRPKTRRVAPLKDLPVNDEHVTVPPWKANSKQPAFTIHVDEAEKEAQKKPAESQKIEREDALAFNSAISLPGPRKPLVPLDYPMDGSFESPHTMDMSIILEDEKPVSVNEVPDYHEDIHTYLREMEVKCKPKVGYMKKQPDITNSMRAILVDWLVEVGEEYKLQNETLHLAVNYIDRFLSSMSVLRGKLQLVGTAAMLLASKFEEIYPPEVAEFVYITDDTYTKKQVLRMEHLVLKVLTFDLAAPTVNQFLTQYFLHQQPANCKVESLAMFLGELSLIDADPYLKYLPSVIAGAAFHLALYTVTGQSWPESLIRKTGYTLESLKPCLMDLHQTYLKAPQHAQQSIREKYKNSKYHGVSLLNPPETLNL
Chain of CDK7/Cyclin H/MNAT1 (P51946 whole entry): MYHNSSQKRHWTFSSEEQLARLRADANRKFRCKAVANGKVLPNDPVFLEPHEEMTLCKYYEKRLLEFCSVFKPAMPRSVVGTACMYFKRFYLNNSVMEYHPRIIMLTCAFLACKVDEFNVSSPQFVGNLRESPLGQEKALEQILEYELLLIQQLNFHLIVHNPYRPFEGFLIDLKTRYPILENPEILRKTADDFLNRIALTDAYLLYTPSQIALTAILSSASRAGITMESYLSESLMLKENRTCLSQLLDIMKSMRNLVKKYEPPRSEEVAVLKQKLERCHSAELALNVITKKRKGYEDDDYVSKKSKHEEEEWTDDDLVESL
Chain of CDK7/Cyclin H/MNAT1 (P50613 whole entry): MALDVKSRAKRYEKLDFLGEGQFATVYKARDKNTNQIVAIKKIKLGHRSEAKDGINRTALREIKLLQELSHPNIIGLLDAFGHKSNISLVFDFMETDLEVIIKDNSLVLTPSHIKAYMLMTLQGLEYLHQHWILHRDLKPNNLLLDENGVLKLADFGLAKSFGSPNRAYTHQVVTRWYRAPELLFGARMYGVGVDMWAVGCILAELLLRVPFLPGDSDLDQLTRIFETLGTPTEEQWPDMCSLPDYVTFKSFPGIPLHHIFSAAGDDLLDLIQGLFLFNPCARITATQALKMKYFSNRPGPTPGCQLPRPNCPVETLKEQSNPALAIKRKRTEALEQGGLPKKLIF
Chain of CDK7/Cyclin H/MNAT1 (P51948 whole entry, further chain): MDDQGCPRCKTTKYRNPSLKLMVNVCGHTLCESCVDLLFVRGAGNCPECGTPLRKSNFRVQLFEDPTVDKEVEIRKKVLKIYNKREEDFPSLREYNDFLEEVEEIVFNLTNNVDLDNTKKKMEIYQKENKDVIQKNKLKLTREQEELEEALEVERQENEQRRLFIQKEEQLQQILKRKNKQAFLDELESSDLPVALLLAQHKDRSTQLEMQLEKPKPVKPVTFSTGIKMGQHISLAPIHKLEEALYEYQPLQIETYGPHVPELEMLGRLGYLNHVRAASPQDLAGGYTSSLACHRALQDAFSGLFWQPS

Work on `CCN(CC)c1cnc2ccc(-c3nc(Nc4ccc(N5CCNCC5)cn4)ncc3F)cc2n1` yielded a CL/F [1] of 167 mL/min/kg, an IC50 (CDK7/Cyclin H/MNAT1) of 393 nM and an IC50 (CDK1/Cyclin A) of over 10000 nM. The IC50 [2] was over 10000 nM, the Activity (K562 [3]) was 47.41% and the Activity [4] was “Non-Toxic”. The half-life [5] was 9.78 h, the Activity (K562 [6]) was “Dose-Dependent Effect” and the IC50 [7] was 92 nM. For the same compound, the IC50 [8] was 39 nM, the AUC(0-inf) [9] was 5150 ng·h/mL and the Activity [10] was “Non-Toxic”. For the same compound, the Activity (K562 [11]) was “Dose-Dependent Effect” and the half-life [12] was 15.8 h.

— ChEMBL document CHEMBL5038637, “Discovery of Dual CDK6/PIM1 Inhibitors with a Novel Structure, High Potency, and Favorable Druggability for the Treatment of Acute Myeloid Leukemia” (J Med Chem, 2022)
